Data as given in patent publication US9623111B2, “Pegylated artesunate derivative, pharmaceutical composition and use thereof” (Institute of Pharmacology and Toxicology Academy of …, priority 2012, dated 2017).

Tested on: not listed separately
Test: Determination of drug-time curve in vivo (serum dihydroartemisinin by LC-MS after intravenous injection)
Settings: SD rats, single intravenous (caudal vein) injection, dose equivalent to 10 mg/kg artesunate
Method: Samples: Artesunate, Compounds 1-4.
Preparation of samples: artesunate was dissolved with 5% NaHCO3 physiological saline to obtain 10 mg/ml colorless pellucid solution; Compound 1 was dissolved with injection physiological saline to prepare a colorless pellucid solution containing equivalently 10 mg/ml artesunate.
Animals: SD rats were purchased from the Animal Center of the Military Medical Science Academy of the PLA, body weight 200±10 g, male, conventionally raised, free diet.
Experimental method: solutions of artesunate and Compound 1 samples were administrated to each rat by intravenous injection in an amount of 0.2 ml (a dose equivalent to 10 mg/kg artesunate). Blood samples were collected at 0 min, 10 min, 20 min, 30 min, 45 min, 1 hr, 1.5 hr, 2 hr, 2.5 hr, 3 hr, 4 hr, 6 hr, 8 hr, 10 hr, respectively, and serum concentration of dihydroartemisinin were measured by LC-MS method.
Experimental Results: See FIG. 1.

Compound	half-life extended in comparison with artesunate
[(Artesunate-)2-Lys-]2-PEG20k [Compound 1]	about 5 times

Tested on: Plasmodium berghei
Test: Evaluation of anti-malarial effects (murine malaria 4 day inhibition method, infected Kunming mice)
Assay type: in vivo
Settings: intraperitoneal injection, dose equivalent to 10 mg/kg artesunate, 4 administrations, D4, mean (range)
Method: Preparation of animals and pathological models: Kunming mice were purchased from the Animal Center of the Military Medical Science Academy of the PLA, body weight 20±2 g, female, conventionally raised, free diet. The mice were inoculated 1×10^7 plasmodia via intraperitoneal injection on the test day (DO) to infect red blood cells to establish murine malaria infection models.
Dosage regimen: the solutions of artesunate and PEGlyation derivatives thereof were diluted with injection water to a concentration equivalent to 1 mg/ml artesunate, and each mouse was administrated by 0.2 ml intraperitoneal injection (a dose equivalent to 10 mg/kg artesunate). First administration was performed 3 hours after the mice were infected, then administrated once per 24 hours, until the 3rd day (D3) after infection, that was, totally administrated for 4 times. The placebo control group was injected with physiological saline of same volume.
On the 4th day (D4) after administration of 10 mg/kg body weight artesunate and its PEGlyation derivatives, their inhibition rates to Plasmodium berghei were all 80% or more, and there was no significant difference of inhibition rate between the derivatives and artesunate (Table 1).

Compound	inhibition rates to Plasmodium berghei, Mean (column group headed Parasitemia (%))
C[C@H]1[C@H](OC(=O)CCC(=O)O)O[C@@H]2O[C@@]3(C)CC[C@H]4[C@H](C)CC[C@@H]1[C@@]24OO3 [Artesunate]	84.0(76.0-94.6) %
Artesunate-NH-PEG20k-NH-Artesunate [Compound 4]	80.8(79.7-87.0) %
[(Artesunate-)2-Lys-]2-PEG20k [Compound 1]	87.2(82.7-92.7) %
mPEG20k-Lys2-(Artesunate)4 [Compound 3]	92.1(87.8-95.1) %
mPEG20k-Lys-(Artesunate)2 [Compound 2]	87.0(79.3-97.4) %
